Two molecules from patent publication US20090088482A1, “Compositions and Methods For Treating Heart Failure” (The Trustees Of Columbia University In The City New York, priority 2003, published 2009) can be followed below.

Common to all, as to format: in vivo, Sprague-Dawley rats
The test system of assay [1] is rats with HF induced by LAD ligation. Description: Hemodynamic measurements (Millar catheter) in LAD ligation ischemic HF rats (Example 5). To be noted: mean ± SD, after 9 weeks oral therapy; for MAP: HF 47.2 ± 8.85, Sham 39.8 ± 5.56; for LVSP: HF 113 ± 10.3, Sham 116 ± 17.3; for HR: HF 302 ± 19.1, Sham 291 ± 52.2; for Maximum dP/dt: HF 4609 ± 583, Sham 6700 ± 1706; for Minimum dP/dt: HF −3854 ± 563, Sham −6458 ± 1799. The procedure: After the induction of general anesthesia with the use of intraperitoneal ketamine (75 mg/kg; Fort Dodge Animal Health, Fort Dodge, Iowa) and xylazine (5 mg/kg; Lloyd Laboratories, Shenandoah, Iowa), endotracheal intubation with a 16-guage angiocathether was performed. Rats were supported by a small animal ventilator (Harvard Apparatus, Holliston, Mass.). After performing a left thoracotomy, a sham operation (pericardiectomy only) or left anterior descending artery (LAD) ligation with a 7-0 polypropylene suture was performed. Subsequently, a chest tube (16-guage angiocathether) was placed in the left pleural space prior to closing the incision in three layers. Finally, the chest tube was used to aspirate the pleural cavity and removed after extubation.
A total of 69 rats were used in this study. […] Three weeks post-operatively, echocardiography was performed to establish the baseline level of HF (as measured by fractional shortening). The LAD ligation rats were divided into 4 treatment groups matched for the degree of HF and were randomly assigned to one of the following therapies for 9 additional weeks: (1) rats receiving no therapy (group HF, n=9); (2) rats receiving high-dose clenbuterol at 1 mg/kg/day (group Clen, n=9); (3) rats receiving high-dose metoprolol at 200 mg/kg/day (group Meto, n=9); or (4) rats receiving concurrent high-dose clenbuterol at 1 mg/kg/day and high-dose metoprolol therapy at 200 mg/kg/day (group Clen+Meto, n=10).
Clenbuterol (ICN Biomedicals, Aurora, Ohio) was sonicated and subsequently dissolved in the drinking water. Metoprolol (Sigma-Aldrich, St. Louis, Mo.) was dissolved in the drinking water either alone or in combination with clenbuterol for the Clen+Meto group. The concentrations of clenbuterol and metoprolol were varied to keep the study drug dose delivered within a narrow therapeutic window based on daily water consumption. […] The treated drinking water was made fresh every 48-72 hours. Oral pharmacotherapy was continued for a total of 9 weeks.
In the terminal experiments 12 weeks post-surgery, the rats were anesthetized with inhaled isoflurane mixed with oxygen. A 2-French Millar catheter (Millar Instruments, Houston, Tex.) was inserted into the right carotid artery and pressure measurements collected and saved as the catheter was advanced into the left ventricle. The heart was quickly arrested in diastole and excised. Hearts were subsequently weighed and used for the ex vivo determination of LV end-diastolic pressure-volume relationships (EDPVR). Using Chart 4 (version 4.2.4, ADInstruments, Colorado Springs, Colo.), left ventricular end-diastolic pressure (LVEDP), left ventricular systolic pressure (LVSP), mean aortic pressure (MAoP), heart rate, and maximum and minimum LV dP/dt (dP/dtmax and dP/dtmin) were later obtained from stored hemodynamic recordings by a single individual (S.X.), who was blinded to animals' group assignments.

Assay [2] shares this test system. Put plainly: Ex vivo end-diastolic pressure-volume relationships (EDPVR) (Example 5). To be noted: for passive LV Volume at 30 mmHg, normalized for heart weight: ex vivo EDPVR, HF 0.50, Sham 0.36. The procedure: (§1) A total of 69 rats were used in this study. LAD ligation surgery was performed in 60 rats, of which 37 (62%) survived three weeks post-surgery. Another 9 rats underwent a sham operation (group Sham), with 7 (78%) survivors. Three weeks post-operatively, echocardiography was performed to establish the baseline level of HF (as measured by fractional shortening). The LAD ligation rats were divided into 4 treatment groups matched for the degree of HF and were randomly assigned to one of the following therapies for 9 additional weeks: (1) rats receiving no therapy (group HF, n=9); (2) rats receiving high-dose clenbuterol at 1 mg/kg/day (group Clen, n=9); (3) rats receiving high-dose metoprolol at 200 mg/kg/day (group Meto, n=9); or (4) rats receiving concurrent high-dose clenbuterol at 1 mg/kg/day and high-dose metoprolol therapy at 200 mg/kg/day (group Clen+Meto, n=10).
An 18-gauge angiocatheter was placed into the LV through the aortic valve and connected to a three-way stopcock. A fine hemostat was placed on the atrial side of the mitral annulus to seal the LV. After eliminating any air from the system, LV pressures were measured using a […] Millar micromanometer introduced through the angiocatheter. While recording LV pressure using an analog-to-digital conversion reading system (Chart 4, version 4.2.4; ADInstruments, Colorado Springs, Colo.), saline was infused into the LV cavity in 50 μL increments using a calibrated 1 mL syringe. The infused fluid was withdrawn and measured to ensure that no leakage had occurred. Data was utilized only if >95% of the injected volume was recovered. Using commercial software (Igor Pro, version 4.0.5.1; WaveMetrics, Lake Oswego, Oreg.), values of LV pressure (P) and volume (V) were fitted according to the equation: […]
where β is the base constant and α is an index of ventricular stiffness, as previously described (Mirsky I. Assessment of passive elastic stiffness of cardiac muscle: mathetical concepts, physiologic and clinical considerations, directions of future research. Prog Cardiovasc Dis. 1976; 18:277-308). […]

Assay [3] deals with myocytes (TUNEL, 8-oxoG, MYH, OGG1 staining). Description: Quantitative immunohistochemistry staining of apoptosis, DNA damage and DNA repair markers (Example 5). To be noted: mean ± SD; for 8-oxoG: DNA damage product, HF 18 ± 4, Sham 0.5 ± 0.1; for OGG1: DNA repair marker, HF 0.5 ± 0.1, Sham 0.2 ± 0.1; for TUNEL: percentage of myocytes with nuclear staining, HF 21 ± 4, Sham 0.5 ± 0.1; for MYH (score): score 0 = 0%, 1 = 0-15%, 2 = 15-30%, 3 = 30-50%, 4 = >50% positive, HF 1.4 ± 0.5, Sham 0.6 ± 0.2. Here is the method: as §1
A short-axis section of the heart at the point of maximal infarction was fixed in 4% paraformaldehyde solution for 12 hours. Sections were then embedded in paraffin and 5 μm slices used for trichrome staining. The infarct size was determined as a percentage of the LV circumference under light microscopy by a single individual (S.X.) blinded to group assignment. The remaining heart tissue was flash-frozen in liquid nitrogen and stored at −80° C. for Western blot analysis.
Histological sections (5 μm thick) were used to perform immunohistochemistry for: terminal deoxynucleotidyltransferase end labeling (TUNEL; apoptosis marker), 8-oxoG (DNA damage product), MYH (DNA mismatch repair enzyme), and OGG1 (DNA base excision repair enzyme). The percentage of myocytes with nuclear staining was quantified in a blinded manner. Because OGG1 is found both in the nucleus and cytoplasm, a scoring system was utilized to semi-quantitatively describe the staining observed: 0=no staining; 1=0 to 15% staining; 2=15 to 30% staining; 3=30 to 50% staining; and 4=>50% staining of the nucleus and cytoplasm.

Turning to `CC(C)(C)NCC(O)c1cc(Cl)c(N)c(Cl)c1` (stereo not drawn) [Clen, clenbuterol], in assay [1], the MAP is listed as 44.2 ± 6.06 mmHg, the LVSP came out at 109 ± 10.7 mmHg, the HR was determined as 281 ± 11.2 bpm and the “Maximum dP/dt” value is 4933 ± 596 mmHg/s. Also, the “Minimum dP/dt” value in assay [1] came to 3901 ± 694 mmHg/s. The “passive LV Volume at 30 mmHg, normalized for heart weight” value in assay [2] was 0.42 mL/gm of heart weight. In addition, in assay [3], the 8-oxoG is 10 ± 2 † %, the OGG1 was 8.2 ± 2.2 † %, the TUNEL is 11 ± 3 † % and the “MYH (score)” value is given as 2.8 ± 0.5 † score.

With `COCCc1ccc(OCC(O)CNC(C)C)cc1` (stereo not drawn) [Meto, metoprolol], in assay [1], the MAP was determined as 42.7 ± 5.38 mmHg, the LVSP amounted to 107 ± 9.27 mmHg, the HR came out at 243 ± 19.4 bpm and the “Maximum dP/dt” value turned out to be 5462 ± 541 mmHg/s. The “Minimum dP/dt” value in assay [1] is on record as −4032 ± 830 mmHg/s. For the same molecule, in assay [2], the “passive LV Volume at 30 mmHg, normalized for heart weight” value was 0.51 mL/gm of heart weight. For the same molecule, the “shift of EDPVR curve versus Sham rats” value in assay [2] (ex vivo, normalized for heart weight) is given as “rightward shift”. In assay [3], the 8-oxoG is listed as 12 ± 3 † %, the OGG1 was 6.4 ± 1.5 † %, the TUNEL is 12 ± 4 † % and the “MYH (score)” value was 2.6 ± 0.4 † score.
